In PubChem BioAssay AID1963849 (Molecular Pharmacology Branch, DTP, NCI, 2024):

Tested on: 299254-011-R-J1-PDC complex spheroid viability
Assay: Anticancer human tumor 299254-011-R-J1-PDC patient-derived melanoma cell line growth inhibition [POLQ]
Conditions: for IC50: curve of first compound; for viability, T/C: stronger effect = lower value
Experimental: Multicellular complex tumor spheroid response to Polymerase (POL) inhibitors (novobiocin, ART-558, RP6685) in combination with a variety of drugs and investigational agents in selected tumor cell lines
The POL inhibitors (novobiocin, ART-558, and RP6685) were evaluated both individually and in combination with standard of care and investigational anticancer small molecules within a complex spheroid model of solid tumors. . Complex spheroids include a stromal component modeled by human endothelial cells (HUVEC) and fibroblasts modeled by human mesenchymal stem cells (MSCs). The concentration ranges selected for each drug and investigational agent were based upon clinically achievable concentrations if the clinical Cmax of the agent was known.
Compounds. The drugs and investigational agents: novobiocin (NSC847541), ART-558 (NSC835418), RP-6685 (NSC848927), peposertib (NSC802822), ceralasertib (NSC780249), elimusertib (NSC800525), camonsertib (NSC841442), AZD-1390 (NSC803789), olaparib (NSC753686), talazoparib (NSC767125), rucaparib (NSC756644), sotorasib (NSC818433), MRTX-1133 (NSC836407), SN-38 (NSC673596), topotecan (NSC609699), epotoside (NSC141540), doxorubicin (NSC123127), gemcitabine (NSC613327), 5-fluorouracil (NSC19893), paclitaxel (NSC125973), vemurafenib (NSC761431), MSA-2 (NSC828583), SN-011 (NSC837082), adavosertib (NSC754352), prexasertib (NSC758257), carboplatin (NSC241240) and oxaliplatin (NSC266046), were obtained from the National Cancer Institute (NCI) Developmental Therapeutics Program Chemical Repository (21). The FDA-approved anticancer drug set is available from the Developmental Therapeutics Program at https://dtp.cancer.gov/organization/dscb/obtaining/. […] The stock solutions were prepared in dimethyl sulfoxide (DMSO, Sigma-Aldrich, St. Louis, MO, cat. D2650), except for the platinum compounds which were prepared in saline (Quality Biological, Gaithersburg, MD, cat. 114-055-101), at 800-fold the tested concentration and stored at -70 degrees C prior to their use. All drugs and investigational agents were tested over a range starting from a high concentration at or near the clinical Cmax and decreasing in half-log increments. If the clinical Cmax for an agent had not been determined, the highest concentration tested was 10 microM, except for SN-38, which was tested at a high concentration of 1 microM.
Cell Culture. All cells were maintained in an incubator at 37 degrees C and 5% CO2 with 95% humidity. The PDC lines were cultured according to standard operating procedures established by the NCI PDMR (https://pdmr.cancer.gov). Table 3 of the manuscript, lists the cell lines along with the number of the three cell types plated to form the mct-spheroids and media for tumor cell growth. After thawing, all PDC lines, except 997537-175-T-J1-PDC and 415267-285-R-J2-PDC, were cultured in Matrigel-coated flasks prepared with a working solution of 1X Ham's F-12 nutrient mix, without supplementation (Thermo Fisher Scientific, cat. 11765054), 100 U/mL penicillin-streptomycin (Thermo Fisher Scientific, cat. 15140122), and 2.5% Matrigel (Corning Inc., Corning, NY, cat. 354248) for the first three passages. The two PDC lines 997537-175-T-J1-PDC and 415267-285-R-J2-PDC were cultured on uncoated flasks. The 857933-349-R-J2-PDC line was cultured in 6C/Colon 1B media containing advanced DMEM/F-12 (Thermo Fisher Scientific, cat. 12634028), 10 mM HEPES (Thermo Fisher Scientific, cat. 15630080), 1X GlutaMAX supplement (Thermo Fisher Scientific, cat. 35050061), 0.1 mg/mL primocin (InvivoGen, San Diego, CA, cat. ant-pm-2), 10% defined fetal bovine serum, heat inactivated (HyClone Laboratories Inc., Logan, UT, cat. SH30070.03HI), 50% L-WRN conditioned media (ATCC, cat. CRL-3276), 1.25 mM N-Acetyl-L-cysteine (Sigma-Aldrich, cat. A9165), 10 mM nicotinamide (Sigma-Aldrich, cat. N0636), 1X B-27 supplement (Thermo Fisher Scientific, cat. 17504044), 1X N-2 supplement (Thermo Fisher Scientific, cat. […]

[1] = second compound 0.0316 µM, first compound 0.0316 µM
[2] = second compound 0.0316 µM, first compound 0.1 µM
[3] = second compound 0.0316 µM, first compound 0.316 µM
[4] = second compound 0.0316 µM, first compound 1 µM
[5] = second compound 0.0316 µM, first compound 3.16 µM
[6] = second compound 0.0316 µM, first compound 10 µM
[7] = second compound 0.1 µM, first compound 0.0316 µM
[8] = second compound 0.1 µM, first compound 0.1 µM
[9] = second compound 0.1 µM, first compound 0.316 µM
[10] = second compound 0.1 µM, first compound 1 µM
[11] = second compound 0.1 µM, first compound 3.16 µM
[12] = second compound 0.1 µM, first compound 10 µM
[13] = second compound 0.316 µM, first compound 0.0316 µM
[14] = second compound 0.316 µM, first compound 0.1 µM
[15] = second compound 0.316 µM, first compound 0.316 µM
[16] = second compound 0.316 µM, first compound 1 µM
[17] = second compound 0.316 µM, first compound 3.16 µM
[18] = second compound 0.316 µM, first compound 10 µM
[19] = second compound 1 µM, first compound 0.0316 µM
[20] = second compound 1 µM, first compound 0.1 µM
[21] = second compound 1 µM, first compound 0.316 µM
[22] = second compound 1 µM, first compound 1 µM
[23] = second compound 1 µM, first compound 3.16 µM
[24] = second compound 1 µM, first compound 10 µM
[25] = second compound 3.16 µM, first compound 0.0316 µM
[26] = second compound 3.16 µM, first compound 0.1 µM
[27] = second compound 3.16 µM, first compound 0.316 µM
[28] = second compound 3.16 µM, first compound 1 µM
[29] = second compound 3.16 µM, first compound 3.16 µM
[30] = second compound 3.16 µM, first compound 10 µM
[31] = second compound 10 µM, first compound 0.0316 µM
[32] = second compound 10 µM, first compound 0.1 µM
[33] = second compound 10 µM, first compound 0.316 µM
[34] = second compound 10 µM, first compound 1 µM
[35] = second compound 10 µM, first compound 3.16 µM
[36] = second compound 10 µM, first compound 10 µM
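Further: spheroids exposed to drugs for one week before measurement.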
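Wherever viability, T/C is given: percent viability relative to DMSO vehicle control taken as 100%.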

Structure (SMILES): COc1cc(C2c3cc4c(cc3C(OC3OC5COC(C)OC5C(O)C3O)C3COC(=O)C23)OCO4)cc(OC)c1O (centres undefined) + COC1C(OC(N)=O)C(O)C(Oc2ccc3c(O)c(NC(=O)c4ccc(O)c(CC=C(C)C)c4)c(=O)oc3c2C)OC1(C)C
- IC50 (second compound 0.0316 µM): > 10000 nM
- IC50 (second compound 0.1 µM): 9110 nM
- IC50 (second compound 0.316 µM): > 10000 nM
- IC50 (second compound 1 µM): 9930 nM
- IC50 (second compound 3.16 µM): > 10000 nM
- IC50 (second compound 10 µM): > 10000 nM
- viability, T/C [1]: 99%
- viability, T/C [2]: 85.6%
- viability, T/C [3]: 101%
- viability, T/C [4]: 83.7%
- viability, T/C [5]: 65.8%
- viability, T/C [6]: 55.1%
- viability, T/C [7]: 93.8%
- viability, T/C [8]: 96.1%
- viability, T/C [9]: 97.4%
- viability, T/C [10]: 78.3%
- viability, T/C [11]: 65.3%
- viability, T/C [12]: 48.2%
- viability, T/C [13]: 98%
- viability, T/C [14]: 83.8%
- viability, T/C [15]: 90.9%
- viability, T/C [16]: 86.7%
- viability, T/C [17]: 75.2%
- viability, T/C [18]: 55.4%
- viability, T/C [19]: 95.2%
- viability, T/C [20]: 100%
- viability, T/C [21]: 99.3%
- viability, T/C [22]: 101%
- viability, T/C [23]: 77.2%
- viability, T/C [24]: 49.9%
- viability, T/C [25]: 95.5%
- viability, T/C [26]: 107%
- viability, T/C [27]: 108%
- viability, T/C [28]: 95.2%
- viability, T/C [29]: 63.6%
- viability, T/C [30]: 59.4%
- viability, T/C [31]: 103%
- viability, T/C [32]: 99.7%
- viability, T/C [33]: 101%
- viability, T/C [34]: 86.6%
- viability, T/C [35]: 80.6%
- viability, T/C [36]: 55.9%

Structure (SMILES): COc1cccc2c1C(=O)c1c(O)c3c(c(O)c1C2=O)CC(O)(C(=O)CO)CC3OC1CC(N)C(O)C(C)O1 (centres undefined) + COC1C(OC(N)=O)C(O)C(Oc2ccc3c(O)c(NC(=O)c4ccc(O)c(CC=C(C)C)c4)c(=O)oc3c2C)OC1(C)C
- IC50 (second compound 0.0316 µM): 564 nM
- IC50 (second compound 0.1 µM): 815 nM
- IC50 (second compound 0.316 µM): 527 nM
- IC50 (second compound 1 µM): 909 nM
- IC50 (second compound 3.16 µM): 826 nM
- IC50 (second compound 10 µM): 541 nM
- viability, T/C [1]: 81.9%
- viability, T/C [2]: 96.5%
- viability, T/C [3]: 55.2%
- viability, T/C [4]: 40.7%
- viability, T/C [5]: 9.45%
- viability, T/C [6]: 3.09%
- viability, T/C [7]: 86.8%
- viability, T/C [8]: 97.5%
- viability, T/C [9]: 75.7%
- viability, T/C [10]: 44.9%
- viability, T/C [11]: 11.2%
- viability, T/C [12]: 3%
- viability, T/C [13]: 99.2%
- viability, T/C [14]: 96%
- viability, T/C [15]: 54.9%
- viability, T/C [16]: 37.8%
- viability, T/C [17]: 13.1%
- viability, T/C [18]: 0.51%
- viability, T/C [19]: 93%
- viability, T/C [20]: 87.5%
- viability, T/C [21]: 76.7%
- viability, T/C [22]: 49.2%
- viability, T/C [23]: 11.9%
- viability, T/C [24]: 0.78%
- viability, T/C [25]: 92.6%
- viability, T/C [26]: 95.5%
- viability, T/C [27]: 76.7%
- viability, T/C [28]: 45.6%
- viability, T/C [29]: 10.3%
- viability, T/C [30]: 0.92%
- viability, T/C [31]: 105%
- viability, T/C [32]: 104%
- viability, T/C [33]: 65.2%
- viability, T/C [34]: 30%
- viability, T/C [35]: 10.7%
- viability, T/C [36]: 1.25%
